Results taken from patent US20010051179A1, “METHOD FOR PREVENTING THE SPREAD OF INFECTIOUS MICROORGANISMS USING CYANOACRYLATE” (priority 1996, published 2001).

Assays:
Herpes Simplex virus [1] = test: Twice-daily coating of open Herpes Simplex lip sores with cyanoacrylate (case reports); type: in vivo, human
Description: A person had open sores on their lower lip from which a clear liquid was exuding. The sores were diagnosed as resulting from the Herpes Simplex virus. Their initial office treatment consisted of swabbing the open sores with n-butyl-cyanoacrylate using a surgical swab until the sores and surrounding tissue were completely covered. They were given a supply of n-butyl-cyanoacrylate and surgical paddles for self-application and instructed on their use. They were cautioned not to close their lips or press them together after applying the n-butyl-cyanoacrylate for two to three minutes so that the coating over the sores would be completely dry.
An individual had open sores on their lip from which a clear liquid was exuding. The sores were diagnosed as Herpes Simplex virus.
An individual had open sores on their lip from which a clear liquid was exuding. The sores were diagnosed as resulting from the Herpes Simplex virus. They were instructed to coat the sores with 2 acetyl cyanoacrylate using a surgical swab until the sores and surrounding tissue were completely covered.
An individual had open sores on their lip from which a clear liquid was exuding. The sores were diagnosed as resulting from the Herpes Simplex virus. They were instructed to coat the sores with octyl-cyanoacrylate using a surgical swab until the sores and surrounding tissue were completely covered.

Herpes Simplex virus [2] = test: Twice-daily coating of a Herpes Simplex prodrome on the lip with cyanoacrylate (case report); type: in vivo, human; conditions: itching prodrome on lower lip, topical coating twice daily for three days
Description: Before the open Herpes sore forms, an area where the sore will form becomes sensitive and itchy, and is known as a prodrome. The application of cyanoacrylate to the prodrome prevents the sore from forming. The cyanoacrylate can also be applied in the same manner as previously described to the prodrome.
A person had itching on their lower lip. The itching was diagnosed as resulting from a prodrome of the Herpes Simplex virus. Their initial office treatment consisted of being told to swab the prodrome with n-butyl-cyanoacrylate using a surgical swab until the prodrome and surrounding tissue were completely covered. They were given a supply of n-butyl-cyanoacrylate and surgical paddles for self-application and instructed on their use.

[3] = topical coating twice daily for three days

2 acetyl cyanoacrylate
state of the open sores (exudation of clear liquid) at end of treatment (Herpes Simplex virus [1]; [3]): no longer exuding

C=C(C#N)C(=O)OCC [ethyl cyanoacrylate]
state of the open sores (exudation of clear liquid) at end of treatment (Herpes Simplex virus [1]; topical coating twice daily for several days): no longer exudating

C=C(C#N)C(=O)OCCCC [n-butyl-cyanoacrylate]
state of the open sores (exudation of clear liquid) at end of treatment (Herpes Simplex virus [1]; [3]): no longer exudating | outcome of prodrome (sore formation) (Herpes Simplex virus [2]): prodrome disappeared and no sores formed or exuded

C=C(C#N)C(=O)OCCCCCCCC [octyl-cyanoacrylate]
state of the open sores (exudation of clear liquid) at end of treatment (Herpes Simplex virus [1]; [3]): no longer exuding
